Tests used:
[1] = target: recombinant human DPPI (Cathepsin C) (Homo sapiens (Human), UniProt P53634); assay: Inhibition of human DPPI (Cathepsin C); type: biochemical; settings: substrate Gly-Arg-AMC
Summary of the method: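 Recombinant human DPPI in MES buffer pH 6.0 (5 mM DTT, 0.1% BSA); fluorogenic substrate at 50 μM final, 30 min at room temperature, stopped with 1 μM Gly-Phe-DMK. Background-subtracted fluorescence expressed as percent of vehicle control; IC50 derived.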

[2] = Determination of metabolic stability with human liver microsomes; settings: pooled human liver microsomes; for half-life at 1 μM: human, pH 7.6
[3] = target: recombinant human Cathepsin K (Homo sapiens (Human), UniProt P43235); assay: Inhibition of human Cathepsin K; type: biochemical; settings: substrate Z-Gly-Pro-Arg-AMC
Text: Inhibition of Human Cathepsin K
Materials: Microtiterplates (Optiplate-384 F were purchased from PerkinElmer (Prod. No. 6007270). The substrate Z-Gly-Pro-Arg-AMC was from Biomol (Prod.-No. P-142). L-Cysteine (Prod. No. 168149) was from Sigma. Sodium acetate was from Merck (Prod.-No. 6268.0250), EDTA was from Fluka (Prod.-No. 03680). The inhibitor E-64 was purchased from Sigma (Prod.-No. E3132). The recombinant human Cathepsin K proenzyme was purchased from Biomol (Prod. No. SE-367). All other materials were of highest grade commercially available.
The following buffers were used: Activation buffer: 32.5 mM sodium acetate, adjusted to pH 3.5 with HCl; Assay buffer: 150 mM sodium acetate, 4 mM EDTA, 20 mM L-Cysteine, adjusted to pH 5.5 with HCl,
To activate the proenzyme, 5 μl procathepsin K were mixed with 1 ul activation buffer, and incubated at room temperature for 30 min.
5 μL test compound (final concentration 0.1 nM to 100 μM) in aqua bidest (containing 4% DMSO, final DMSO concentration 1%) were mixed with 10 uL of Cathepsin K in assay buffer (final concentration 2 ng/μL) and incubated for 10 min. […] The plates were then incubated at room temperature for 60 min. Then, the reaction was stopped by adding 10 μL of E64 in assay buffer (final concentration 1 μM). The fluorescence in the wells was determined using a Molecular Devices SpectraMax M5 Fluorescence Reader (Ex 360 nm, Em 460 nm).
Each assay microtiter plate contains wells with vehicle controls (1% DMSO in bidest) as reference for non-inhibited enzyme activity (100% Ctl; high values) and wells with inhibitor (E64 in bidest+1% DMSO, final concentration […]) as controls for background fluorescence (0% Ctl; low values). The analysis of the data was performed by calculating the percentage of fluorescence in the presence of test compound in comparison to the fluorescence of the vehicle control after subtracting the background fluorescence: (RFU(sample)−RFU(background))*100/(RFU(control)−RFU(background))
Data from these calculations were used to generate IC50 values for inhibition of Cathepsin K, respectively.

Chain of recombinant human Cathepsin K (P43235 115-329): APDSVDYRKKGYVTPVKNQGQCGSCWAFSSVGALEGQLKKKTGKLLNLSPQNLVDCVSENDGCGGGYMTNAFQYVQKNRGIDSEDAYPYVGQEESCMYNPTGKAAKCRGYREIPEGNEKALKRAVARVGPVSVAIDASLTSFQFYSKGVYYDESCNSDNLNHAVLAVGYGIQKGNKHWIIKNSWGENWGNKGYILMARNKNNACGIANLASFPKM
Chain of recombinant human DPPI (Cathepsin C) (P53634 231-394): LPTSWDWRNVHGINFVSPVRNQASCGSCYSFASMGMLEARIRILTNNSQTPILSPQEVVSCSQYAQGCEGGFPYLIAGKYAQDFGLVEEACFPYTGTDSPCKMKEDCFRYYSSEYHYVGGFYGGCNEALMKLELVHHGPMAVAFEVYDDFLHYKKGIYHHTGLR
Chain of recombinant human DPPI (Cathepsin C) (P53634 395-463): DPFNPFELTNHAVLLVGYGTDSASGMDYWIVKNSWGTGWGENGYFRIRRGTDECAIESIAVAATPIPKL
Chain of recombinant human DPPI (Cathepsin C) (P53634 25-134): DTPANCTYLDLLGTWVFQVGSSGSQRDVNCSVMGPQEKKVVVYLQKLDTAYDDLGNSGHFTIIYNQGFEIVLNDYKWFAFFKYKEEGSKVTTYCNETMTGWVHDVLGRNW

IC50 [1] | half-life at 1 μM [2] | In vitro stability in human liver microsome incubations t½ ([2]; 1 μM test compound, 37° C., NADPH) | IC50 [3] | SMILES
4.7 nM | – | – | 3000 nM | N#C[C@H](Cc1ccc(-c2cccs2)cc1F)NC(=O)[C@H]1N[C@@H]2CC[C@H]1C2 [Example 36]
6.3 nM | – | – | 4400 nM | N#C[C@@H](Cc1ccc(-c2ccc3ncsc3c2)cc1F)NC(=O)[C@H]1N[C@@H]2CC[C@H]1C2 [Example 45]
30.5 nM | – | – | 9600 nM | N#C[C@H](Cc1ccc(-c2cccc(C(N)=O)c2)cc1F)NC(=O)[C@H]1N[C@H]2C[C@@H]1[C@@H]1C[C@@H]12 [Example 146]
1.9 nM | – | – | 8000 nM | CC(=O)n1nc(-c2ccc(CC(C#N)NC(=O)[C@H]3N[C@@H]4CC[C@H]3C4)c(F)c2)cc1C (stereo partly drawn) [Example 7, (1S,2S,4R)—N-[2-[4-(1-acetyl-5-methyl-pyrazol-3-yl)-2-fluoro-phenyl]-1-cyano-ethyl]-3-azabicyclo[2.2.1]heptane-2-carboxamide]
8.5 nM | – | – | 2500 nM | N#C[C@H](Cc1ccc(-c2cnc(N3CCOCC3)s2)cc1F)NC(=O)[C@H]1N[C@@H]2CC[C@H]1C2 [Example 59]
12.4 nM | – | – | 4100 nM | Cc1nc(C)c(-c2ccc(C[C@@H](C#N)NC(=O)[C@H]3N[C@@H]4CC[C@H]3C4)c(F)c2)s1 [Example 80]
36.4 nM | – | – | 8300 nM | CCc1ncc(-c2ccc(C[C@@H](C#N)NC(=O)[C@H]3N[C@H]4C[C@@H]3[C@@H]3C[C@@H]34)c(F)c2)s1 [Example 113]
3.1 nM | – | – | 2900 nM | CC(=O)n1cc(-c2ccc(C[C@@H](C#N)NC(=O)[C@H]3N[C@@H]4CC[C@H]3C4)c(F)c2)cn1 [Example 20]
9.9 nM | – | – | 2400 nM | N#C[C@H](Cc1ccc(-c2cn[nH]c2)cc1F)NC(=O)[C@H]1N[C@@H]2CC[C@H]1C2 [Example 69]
156 nM | – | – | 5200 nM | Cc1noc(C)c1-c1ccc(C[C@@H](C#N)NC(=O)[C@H]2N[C@@H]3CC[C@H]2C3)c(F)c1 [Example 121]
43.5 nM | – | – | 10200 nM | N#C[C@H](Cc1ccc(-c2ccc(C(N)=O)cc2)cc1F)NC(=O)[C@H]1N[C@H]2C[C@@H]1[C@@H]1C[C@@H]12 [Example 130]
53.8 nM | – | – | 7400 nM | N#C[C@H](Cc1ccc(-c2ccc(Cl)nc2)cc1F)NC(=O)[C@H]1N[C@H]2C[C@@H]1[C@@H]1C[C@@H]12 [Example 145]
3.9 nM | – | – | 6300 nM | Cc1ncc(-c2ccc(C[C@@H](C#N)NC(=O)[C@H]3N[C@@H]4CC[C@H]3C4)c(F)c2)s1 [Example 25]
18.3 nM | – | – | 6900 nM | Cc1ncc(-c2ccc(C[C@@H](C#N)NC(=O)[C@H]3N[C@H]4C[C@@H]3[C@@H]3C[C@@H]34)c(F)c2)s1 [Example 93]
38.6 nM | – | – | 9300 nM | CNS(=O)(=O)c1ccc(-c2ccc(C[C@@H](C#N)NC(=O)[C@H]3N[C@H]4C[C@@H]3[C@@H]3C[C@@H]34)c(F)c2)cc1 [Example 150]
38.7 nM | – | – | 7600 nM | CN1Cc2cc(-c3ccc(C[C@@H](C#N)NC(=O)[C@H]4N[C@H]5C[C@@H]4[C@@H]4C[C@@H]45)c(F)c3)ccc2C1=O [Example 149]

The next lines start with the molecule.

SMILES | IC50 [1] | half-life at 1 μM [2] | In vitro stability in human liver microsome incubations t½ ([2]; 1 μM test compound, 37° C., NADPH) | IC50 [3]
Cn1ccc(-c2ccc(C[C@@H](C#N)NC(=O)[C@H]3N[C@@H]4CC[C@H]3C4)c(F)c2)cc1=O [Example 255] | 10.9 nM | > 2.17 h | – | –
CCN1CCN(c2ccc(C[C@@H](C#N)NC(=O)[C@H]3N[C@@H]4CC[C@H]3C4)c(F)c2)CC1 [Example 272] | 6.8 nM | > 2.17 h | – | –
CNC(=O)Cc1ccc2[nH]c(=O)c3cc(CC(C#N)NC(=O)[C@H]4N[C@@H]5CC[C@H]4C5)ccc3c2c1 (some centres unmarked) [Example 306] | 7 nM | > 2.17 h | – | –
N#C[C@H](Cc1ccc(-c2cnn(-c3ccccc3)c2)cc1F)NC(=O)[C@H]1N[C@@H]2CC[C@H]1C2 [Example 171] | 5 nM | 1.38 h | – | –
N#C[C@H](Cc1ccc(-n2cccn2)cc1F)NC(=O)[C@H]1N[C@@H]2CC[C@H]1C2 [Example 180] | 7.7 nM | > 2 h | – | –
COCCN1CCN(c2ccc(C[C@@H](C#N)NC(=O)[C@H]3N[C@@H]4CC[C@H]3C4)c(F)c2)CC1C (some centres unmarked) [Example 178] | 7.4 nM | > 2.17 h | – | –
N#C[C@H](Cc1ccc([C@H]2CCN3CCOC[C@H]3C2)cc1F)NC(=O)[C@H]1N[C@@H]2CC[C@H]1C2 [Example 284] | – | 0.967 h | – | –
N#C[C@H](Cc1ccc(N2CCCN3CCCC3C2)cc1F)NC(=O)[C@H]1N[C@@H]2CC[C@H]1C2 (some centres unmarked) [Example 271] | – | – | 2.17 h | –
CC(C)CC(=O)n1cc(-c2ccc(C[C@@H](C#N)NC(=O)[C@H]3N[C@@H]4CC[C@H]3C4)c(F)c2)cn1 [Example 48] | 7.2 nM | – | – | 3300 nM
Cc1occc1-c1ccc(CC(C#N)NC(=O)[C@H]2N[C@@H]3CC[C@H]2C3)c(F)c1 (some centres unmarked) [Example 92] | 17.7 nM | – | – | 8200 nM
CNC(=O)c1cc(-c2ccc(C[C@@H](C#N)NC(=O)[C@H]3N[C@@H]4CC[C@H]3C4)c(F)c2)cs1 [Example 161] | 1.9 nM | – | – | 10700 nM
N#C[C@H](Cc1ccc(-c2ccsc2)cc1F)NC(=O)[C@H]1N[C@@H]2CC[C@H]1C2 [Example 18] | 2.7 nM | – | – | 3000 nM
CC(O)Cc1cn(-c2ccc(C[C@@H](C#N)NC(=O)[C@H]3N[C@@H]4CC[C@H]3C4)c(F)c2)nn1 (some centres unmarked) [Example 101] | 23.9 nM | – | – | 6500 nM
CNC(=O)c1ccc(-c2ccc(C[C@@H](C#N)NC(=O)[C@H]3N[C@@H]4CC[C@H]3C4)c(F)c2)cc1 [Example 186] | 9.6 nM | – | – | 3500 nM
N#C[C@H](Cc1ccc(-c2csc(C(=O)N3CCN4CCOCC4C3)c2)cc1F)NC(=O)[C@H]1N[C@@H]2CC[C@H]1C2 (some centres unmarked) [Example 234] | 3.8 nM | – | – | 2900 nM
CCCn1cc(-c2ccc(C[C@@H](C#N)NC(=O)[C@H]3N[C@@H]4CC[C@H]3C4)c(F)c2)cn1 [Example 30] | 4.2 nM | – | – | 3100 nM
N#CC(Cc1ccc(-c2ccc(S(N)(=O)=O)cc2)cc1F)NC(=O)[C@H]1N[C@@H]2CC[C@H]1C2 (some centres unmarked) [Example 56] | 8.3 nM | – | – | 4000 nM
C[C@H]1CN(C)CCN1c1ccc(C[C@@H](C#N)NC(=O)[C@H]2N[C@@H]3CC[C@H]2C3)c(F)c1 [Example 188] | – | 1.62 h | – | –
Cn1cc(-c2ccc(C[C@@H](C#N)NC(=O)[C@H]3N[C@@H]4CC[C@H]3C4)c(F)c2)c(C(F)(F)F)n1 [Example 118] | 44.3 nM | – | – | 3900 nM
COCCN1CCN(C(=O)c2cc(-c3ccc(C[C@@H](C#N)NC(=O)[C@H]4N[C@@H]5CC[C@H]4C5)c(F)c3)cs2)CC1 [Example 228] | 1.6 nM | – | – | 2000 nM
N#C[C@H](Cc1ccc(-c2ccc3c(c2)C(=O)OC3)cc1F)NC(=O)[C@H]1N[C@@H]2CC[C@H]1C2 [Example 34] | 4.6 nM | – | – | 2500 nM
CC(=O)NCCn1cc(-c2ccc(C[C@@H](C#N)NC(=O)[C@H]3N[C@@H]4CC[C@H]3C4)c(F)c2)cn1 [Example 38] | 4.8 nM | – | – | 2900 nM
CCc1ncc(-c2ccc(C[C@@H](C#N)NC(=O)[C@H]3N[C@@H]4CC[C@H]3C4)c(F)c2)s1 [Example 46] | 6.9 nM | – | – | 4000 nM
N#CC(Cc1ccc(-c2ccc3c(c2)COC3=O)cc1F)NC(=O)[C@H]1N[C@@H]2CC[C@H]1C2 (some centres unmarked) [Example 11] | 1.7 nM | – | – | 2600 nM
CN1C(=O)Cc2ccc(-c3cc(F)c(CC(C#N)NC(=O)[C@H]4N[C@@H]5CC[C@H]4C5)c(F)c3)cc21 (some centres unmarked) [Example 61] | 8.7 nM | – | – | 10900 nM
N#C[C@H](Cc1ccc(-c2ccc(C(=O)N3CCn4nccc4C3)s2)cc1F)NC(=O)[C@H]1N[C@@H]2CC[C@H]1C2 [Example 237] | 4.6 nM | – | – | 1900 nM
CC1CN(C)CCN1c1ccc(C[C@@H](C#N)NC(=O)[C@H]2N[C@@H]3CC[C@H]2C3)c(F)c1 (some centres unmarked) [Example 192] | – | > 2.17 h | – | –
N#C[C@H](Cc1ccc(-c2csc(C(=O)N3CCN(C4CC4)CC3)c2)cc1F)NC(=O)[C@H]1N[C@@H]2CC[C@H]1C2 [Example 229] | 1.7 nM | – | – | 1600 nM
N#C[C@H](Cc1ccc(-c2cccc(S(N)(=O)=O)c2)cc1F)NC(=O)[C@H]1N[C@@H]2CC[C@H]1C2 [Example 37] | 4.7 nM | – | – | 5100 nM

Reference: patent US8987249B2, “Substituted 2-Aza-bicyclo[2.2.1]heptane-3-carboxylic acid (benzyl-cyano-methyl)-amides inhibitors of Cathepsin C” (Boehringer Ingelheim International GmbH, priority 2013, dated 2015)
